Data set [1] in a line: Calcein AM cytotoxicity, NIH-3T3. The note with it: mouse, NIH-3T3 fibroblasts.
Source text: One of the parameters used, as the basis for cytotoxicity assays, is the metabolic activity of viable cells. For example, a microtiter assay, which uses the Calcein AM, is now widely used to quantitate cell proliferation and cytotoxicity. […] Because only metabolically active cells cleave Calcein AM, these assays detect viable cells exclusively. The quantity of reduced Calcein AM corresponds to the number of vital cells in the culture.
Mouse fibroblasts NIH3T3; mouse immortalized bone marrow macrophages B2.4 and B10A.4, and BJ (human foreskin fibroblasts) were used for routine screening of compounds. The cells were maintained in Nunc/Corning 80 cm^2 plastic tissue culture flasks and cultured in cell culture medium (DMEM with 5 g/l glucose, 2 mM glutamine, 100 U/ml penicillin, 100 μg/ml streptomycin, 10% fetal calf serum and sodium bicarbonate).
The cell suspensions that were prepared and diluted according to the particular cell type and the expected target cell density (2.500-30.000 cells per well based on cell growth characteristics) were added by pipette (80 μl) into 96/well microtiter plates. Inoculates were allowed a pre-incubation period of 24 hours at 37° C. and 5% CO2 for stabilisation. Four-fold dilutions of the intended test concentration were added at time zero in 20 μl aliquots to the microtiter plate wells. Usually, the compound tested was evaluated at six 4-fold dilutions. […] All compound concentrations were examined in duplicates. Incubations of cells with the tested compounds lasted for 72 hours at 37° C., in 5% CO2 atmosphere and 100% humidity. At the end of the incubation period, the cells were assayed by using Calcein AM. Ten microliters of the stock solution were pipetted into each well and incubated for 1 hour. Fluorescence (FD) was measured with the Labsystem FIA Reader Fluoroscan Ascent (UK).
Data set [2] relates to Rabbits (New Zealand Albino breed). Particulars: rabbit, in vivo. As to the method:
The test substance 114 was tested in Animal skin irritation test. Rabbits (New Zealand Albino breed) were used for the test. The test was performed according to ČSN EN ISO 10993 (Březen 2014): Biologické hodnoceni zdravotnických prostředků—část 10: Zkoušky dráždivosti a senzibilizace kůže, článek 6.3 Zkouška dráždivosti na zviřatech (Biological evaluation of medical devices—Part 10: Tests for irritation and delayed-type hypersensitivity). A dose 0.5 g of the test substance was applied to the skin of the back on each side of each rabbit. […] At first the one rabbit (test animal. No. 16) was used. Two other rabbits (rabbit No. 17 and No. 18) were used in confirmatory test. At the end of the contact time (4 hours) the dressings were removed and animals were examined for signs of erythema and oedema, and the response was evaluated at 1, 24, 48 and 72 hours afterpatches removal.

In another data set the test system is Wistar rats. The data set is described as follows: Acute dermal toxicity. The class given is in vivo. The procedure:
The test substance 114 was tested for acute dermal toxicity using Wistar rats. Testing was performed according to ČSN EN ISO 10993-11: Biologické hodnoceni zdravotnických prostředků—část 11: Zkoušky na systémovou toxicitu and according to OECD Test Guideline No. 402 Acute Dermal Toxicity Adopted 24 Feb. 1987. The study was performed as limit test: two groups of animals—5 males and 5 females at the dose of 1000 mg/kg of body weight. The pre-test was performed with 1 male and 1 female from each group. After the pilot experiment, the other animals of the group were dosed. The test substance in delivered form was applied on the shaved skin of the test animals for 24 hours. The test animals were observed 14 days after exposure to the test substance, afterwards they were sacrificed, and the necropsy for macroscopic examination of the organs was performed. […] The test substance toxicity was evaluated on the basis of mortality, body weight changes, and clinical signs of toxicity during the observation period and necropsy findings at the end of the study. According to the results of study, the value of Maximum Tolerated Dose (dermal) of the test substance for rats of both sexes is higher than 1000 mg/kg of body weight.

The test system of data set [3] is human epidermal model EpiDerm™. In words: In vitro skin irritation test, EpiDerm. It counts as cell-based. As to the method:
Test substance was assayed for the in vitro skin irritation in human epidermal model EpiDerm™. The test was performed according to the Method B.46. In vitro skin irritation: Reconstructed human epidermis model test and Protocol for: In Vitro EpiDerm™ Skin Irritation Test For use with MatTek Corporation's Reconstructed Human Epidermal Model EPI-200-SIT (see par. 1.4, (1), (3)). Two types of extract were prepared by means of polar (water) as well as non-polar extractant (olive oil) according to directions given in ČSN EN ISO 10 993-12 (2012). After pre-incubation of tissues, 30 μl of an extract was placed directly atop to the tissue so it covered all tissue surfaces. Length of exposition was 60 minutes. Three tissues were used for the extract and for each control. The procedure was performed separately for each extract. After removal of extracts of the test substance from tissues, tissues were post incubated for 42 hours due to leave of damage reparation, followed by three hours incubation with MTT and two hours extraction period with shaking. Optical density (OD570) of isopropyl alcohol extracts was measured on a spectrophotometer. Relative cell viability was calculated for each tissue as % of the mean viability of the negative control tissues. Under the above-described experimental design, average viability of tissues treated by test substance water extract was 99.0% and by test substance olive oil extract 103.0%, i.e. viability was >50% in both cases. The effect of the test substance 114 was negative in EpiDerm™ model (tissues were not damaged). According to the classification criteria given in chapter 4.5, the test substance is considered to have no category in regard to skin irritation.

Data set [4] has as its system Salmonella typhimurium strains TA 98, TA 100, TA 1535, TA 1537. The data set is described as follows: Ames test (Bacterial Reverse Mutation Test), Salmonella. The class given is cell-based. Particulars: 10-1000 μg per plate; without as well as with metabolic activation. The procedure:
The test substance was (114) assayed for the mutagenicity by the Bacterial Reverse Mutation Test. The performed test was based on EU method B.13/14 Mutagenicity—Reverse mutation test using bacteria, which is analogous to the OECD Test Guideline No. 471. Four indicator Salmonella typhimurium strains TA 98, TA 100, TA 1535, TA 1537 and one indicator Escherichia coli WP2 uvrA strain were used. The test substance was dissolved in dimethylsulfoxide (DMSO) and assayed in doses of 10-1000 μg per plate, which were applied to plates in volume of 0.1 mL. Experiments were performed without as well as with metabolic activation with a supernatant of rat liver and a mixture of cofactors. The working procedure described is in accordance with the documents Method B.13/14, Mutagenicity: Reverse Mutation Test Using Bacteria, Council Regulation (EC) No. 440/2008. Published in O.J. L 142, 2008 and OECD Test Guideline 471, Bacterial Reverse Mutation Test. Adopted Jul. 21, 1997. In the arrangement given above, the test substance was non-mutagenic for all the used tester strains without as well as with metabolic activation.
On the technique in general: In the Ames test, an excess of revertant colonies over the control signals mutagenicity.

In a further data set the test system is BJ skin fibroblasts. In words: Intracellular ROS production, DCFH-DA probe. The class given is cell-based, human. The note with it: 24 h incubation at 100, 10, 1 and 0.1 μM. As to the method: ROS production in living cells was determined by using the fluorescent probe DCFH-DA. In brief, compound 114 at 100, 10, 1 and 0.1 μM concentrations was incubated for 24 h with BJ skin fibroblasts. Thereafter, cells were washed with phosphate buffer and DCFH-DA was added. The fluorescence was read every 1 min over 20 min by using microplate reader Infinite M200 (TECAN, Switzerland). ROS production was calculated as the increase in fluorescence over 20 min.

Setting [5] is: 60 minutes exposition, 42 hours post incubation, MTT, % of negative control.

As a reminder, the IC50 is the point on the concentration scale where inhibition reaches its midpoint.

With `CN(C)c1nc(NCc2ccco2)c2ncn(C3CCCCO3)c2n1` (centres unmarked) [Compound 114, 2-(Dimethylamino)-6-furfurylamino-9-(tetrahydro-2H-pyran-2-yl)-9H-purine], the IC50 at 72 h in data set [1] is > 167 µM. Besides, in data set [2] (New Zealand Albino, 4 h), the “Primary Irritation Index” value came out at 0. In data set [2], the “changes in animal weights” value was “No changes in animal weights”; the “clinical signs of systemic intoxication” value is “No clinical signs of systemic intoxication”; the erythema and oedema entry is “No erythema and oedema”; the skin irritation result is given as “No skin irritation”. In the data set with Wistar rats (1000 mg/kg of body weight dermal, 14 days observation), the mortality entry was “did not cause death of animals”. For the same compound, the “Maximum Tolerated Dose (dermal)” value with Wistar rats (24 hours on shaved skin, rats of both sexes) was “higher than 1000 mg/kg of body weight”. In addition, the skin irritation classification entry in data set [3] is “no category”. Moreover, in data set [3] (setting [5]), the “average viability of tissues, olive oil extract” value is recorded as 103.0% and the “average viability of tissues, water extract” value is reported as 99.0%. Moreover, in data set [3] (water and olive oil extracts), the “effect in EpiDerm model” value is “negative”. The mutagenicity result in data set [4] is on record as “non-mutagenic”. In the data set with BJ skin fibroblasts, the “concentration at which intracellular ROS production is significantly decreased” value is ≥ 10 µM.

The values are drawn from patent US11643413B2, “9-(2-oxacycloalkyl)-9H-purine-2,6-diamine derivatives and their use for the treatment of skin disorders” (UNIVERZITA PALACKEHO V OLOMOUCI, priority 2017, dated 2023).
